Laboratory results reported in patent publication US20240025891A1 (Celgene Corporation, priority 2020, published 2024).

Test system: Onchocerca gutturosa adult male worms
Assay: Onchocerciasis in vitro screening model Onchocerca gutturosa (worm motility score and MTT/formazan colorimetry)
Settings: Onchocerca gutturosa, read-out: O. gutt Act class

Compound | IC50 [nM]
O=C(NC1CCC(C(F)(F)F)CC1)c1ccnc(Nc2nc(-c3ccccn3)cs2)c1 (centres unmarked) [Example 150, 2-(4-(pyridin-2-yl)thiazol-2-ylamino)-N-(4-(trifluoromethyl)cyclohexyl) isonicotinamide] | < 200
O=C(NCC(F)(F)F)C1CCCN(c2ccc(Nc3nc(-c4ccccn4)cs3)nc2)C1 (centres unmarked) [Example 160, 1-(6-(4-(pyridin-2-yl)thiazol-2-ylamino)pyridin-3-yl)-N-(2,2,2-trifluoroethyl) piperidine-3-carboxamide] | < 200
Cn1cc(-c2ccnc(Nc3nc(-c4ccccn4)cs3)c2)cn1 [Example 161, N-(4-(1-methyl-1H-pyrazol-4-yl)pyridin-2-yl)-4-(pyridin-2-yl)thiazol-2-amine] | < 200
CCCCc1ccnc(Nc2nc(-c3ccccn3)cs2)c1 [Example 167, N-(4-butylpyridin-2-yl)-4-(pyridin-2-yl)thiazol-2-amine] | < 200
c1ccc(-c2csc(Nc3cc(C4CCC4)ccn3)n2)nc1 [Example 168, N-(4-cyclobutyl-pyridin-2-yl)-4-(pyridin-2-yl)thiazol-2-amine] | < 200
c1ccc(-c2csc(Nc3cc(-c4cccnn4)ccn3)n2)nc1 [Example 169, N-(4-(pyridazin-3-yl)pyridin-2-yl)-4-(pyridin-2-yl)thiazol-2-amine] | < 200
O=C(NC1CC1)c1ccnc(Nc2nc(-c3ccccn3)cs2)c1 [Example 170, N-cyclopropyl-2-(4-(pyridin-2-yl)thiazol-2-ylamino) isonicotinamide] | < 200
CNC(=O)c1ccc(-c2ccnc(Nc3nc(-c4ccccn4)cs3)c2)cc1 [Example 171, N-methyl-4-(2-(4-(pyridin-2-yl)thiazol-2-ylamino)pyridin-4-yl)benzamide] | < 200
CCCc1ccnc(Nc2nc(-c3ccccn3)cs2)c1 [Example 172, N-(4-propylpyridin-2-yl)-4-(pyridin-2-yl)thiazol-2-amine] | 200 to 500
c1ccc(-c2csc(Nc3cc(-c4cnccn4)ccn3)n2)nc1 [Example 173, N-(4-(pyrazin-2-yl)pyridin-2-yl)-4-(pyridin-2-yl)thiazol-2-amine] | < 200
c1ccc(-c2csc(Nc3cc(-c4ncccn4)ccn3)n2)nc1 [Example 174, 4-(pyridin-2-yl)-N-(4-(pyrimidin-2-yl)pyridin-2-yl)thiazol-2-amine] | 200 to 500
c1ccc(-c2csc(Nc3cc(-c4cccc5ccccc45)ccn3)n2)nc1 [Example 175, N-(4-(naphthalen-1-yl)pyridin-2-yl)-4-(pyridin-2-yl)thiazol-2-amine] | < 200
c1ccc(-c2csc(Nc3cc(C4CC4)ccn3)n2)nc1 [Example 176, N-(4-cyclopropyl-pyridin-2-yl)-4-(pyridin-2-yl)thiazol-2-amine] | < 200
O=C(NCC1CC1)c1ccnc(Nc2nc(-c3ccccn3)cs2)c1 [Example 177, N-(cyclopropyl-methyl)-2-(4-(pyridin-2-yl)thiazol-2-ylamino) isonicotinamide] | 500 to 5000
Cc1ccnc(Nc2nc(-c3ccccn3)c(CCOC3CCC3)s2)c1 [Example 180, 5-(2-cyclobutoxy-ethyl)-N-(4-methylpyridin-2-yl)-4-(pyridin-2-yl)thiazol-2-amine] | < 200
Cc1ccnc(Nc2nc(-c3ccccn3)c(C(C)(C)C)s2)c1 [Example 181, 5-tert-butyl-N-(4-methylpyridin-2-yl)-4-(pyridin-2-yl)thiazol-2-amine] | 200 to 500
Cc1ccnc(Nc2nc(-c3ccccn3)c(COCC3CCC3)s2)c1 [Example 182, 5-((cyclobutyl-methoxy)methyl)-N-(4-methylpyridin-2-yl)-4-(pyridin-2-yl)thiazol-2-amine] | 200 to 500
Cc1ccnc(Nc2nc(-c3ccccn3)c(CN3CCC3)s2)c1 [Example 183, 5-(azetidin-1-ylmethyl)-N-(4-methylpyridin-2-yl)-4-(pyridin-2-yl)thiazol-2-amine] | < 200
CCc1sc(Nc2cc(C)ccn2)nc1-c1ccccn1 [Example 184, 5-ethyl-N-(4-methylpyridin-2-yl)-4-(pyridin-2-yl)thiazol-2-amine] | < 200

The remaining lines, values ahead:

IC50 [nM] | Compound
500 to 5000 | FC(F)(F)c1cc(Nc2nc(-c3ccccn3)cs2)ncc1Br [Example 140, N-(5-bromo-4-(trifluoro-methyl)pyridin-2-yl)-4-(pyridin-2-yl)thiazol-2-amine]
200 to 500 | O=C(NCC(F)(F)F)c1ccnc(Nc2nc(-c3ccccn3)cs2)c1 [Example 141, 2-(4-(pyridin-2-yl)thiazol-2-ylamino)-N-(2,2,2-trifluoroethyl) isonicotinamide]
200 to 500 | COCCNC(=O)c1ccnc(Nc2nc(-c3ccccn3)cs2)c1 [Example 142, N-(2-methoxyethyl)-2-(4-(pyridin-2-yl)thiazol-2-ylamino) isonicotinamide]
200 to 500 | O=C(c1ccnc(Nc2nc(-c3ccccn3)cs2)c1)N1CCOCC1 [Example 143, morpholino (2-(4-(pyridin-2-yl)thiazol-2-ylamino)pyridin-4-yl)methanone]
200 to 500 | O=C(c1ccnc(Nc2nc(-c3ccccn3)cs2)c1)N1CCNCC1 [Example 144, piperazin-1-yl(2-(4-(pyridin-2-yl)thiazol-2-ylamino)pyridin-4-yl)methanone]
< 200 | O=C(c1ccnc(Nc2nc(-c3ccccn3)cs2)c1)N1CCC(F)(F)CC1 [Example 145, (4,4-difluoro-piperidin-1-yl)(2-(4-(pyridin-2-yl)thiazol-2-ylamino)pyridin-4-yl)methanone]
< 200 | CC(C)NC(=O)c1ccnc(Nc2nc(-c3ccccn3)cs2)c1 [Example 146, N-isopropyl-2-(4-(pyridin-2-yl)thiazol-2-ylamino) isonicotinamide]
< 200 | O=C(NC1CCCC1)c1ccnc(Nc2nc(-c3ccccn3)cs2)c1 [Example 147, N-cyclopentyl-2-(4-(pyridin-2-yl)thiazol-2-ylamino) isonicotinamide]
200 to 500 | C[C@@H](CO)NC(=O)c1ccnc(Nc2nc(-c3ccccn3)cs2)c1 [Example 148, (S)-N-(1-hydroxy-propan-2-yl)-2-(4-(pyridin-2-yl)thiazol-2-ylamino) isonicotinamide]
500 to 5000 | O=C1CN(C(=O)c2ccnc(Nc3nc(-c4ccccn4)cs3)c2)CCN1 [Example 149, 4-(2-(4-(pyridin-2-yl)thiazol-2-ylamino)isonicotinoyl) piperazin-2-one]
< 200 | O=C(NC1CCC(F)(F)CC1)c1ccnc(Nc2nc(-c3ccccn3)cs2)c1 [Example 151, N-(4,4-difluoro-cyclohexyl)-2-(4-(pyridin-2-yl)thiazol-2-ylamino) isonicotinamide]
200 to 500 | O=C(NCCN1CCCC1)c1ccnc(Nc2nc(-c3ccccn3)cs2)c1 [Example 152, 2-(4-(pyridin-2-yl)thiazol-2-ylamino)-N-(2-(pyrrolidin-1-yl)ethyl) isonicotinamide]
< 200 | O=C(c1ccnc(Nc2nc(-c3ccccn3)cs2)c1)N1CC(F)(F)C1 [Example 153, (3,3-difluoroazetidin-1-yl)(2-(4-(pyridin-2-yl)thiazol-2-ylamino)pyridin-4-yl)methanone]
200 to 500 | O=C(NCCO)c1ccnc(Nc2nc(-c3ccccn3)cs2)c1 [Example 154, N-(2-hydroxyethyl)-2-(4-(pyridin-2-yl)thiazol-2-ylamino) isonicotinamide]
< 200 | O=C(N1CCN(c2ccc(Nc3nc(-c4ccccn4)cs3)nc2)CC1)C1(C(F)(F)F)CC1 [Example 155, (4-(6-(4-(pyridin-2-yl)thiazol-2-ylamino)pyridin-3-yl)piperazin-1-yl)(1-(trifluoromethyl)cyclopropyl) methanone]
< 200 | CC(C)(O)C(=O)N1CCN(c2ccc(Nc3nc(-c4ccccn4)cs3)nc2)CC1 [Example 156, 2-hydroxy-2-methyl-1-(4-(6-(4-(pyridin-2-yl)thiazol-2-ylamino)pyridin-3-yl)piperazin-1-yl)propan-1-one]
500 to 5000 | O=C(O)C1CCCN(c2ccc(Nc3nc(-c4ccccn4)cs3)nc2)C1 (centres unmarked) [Example 157, 1-(6-(4-(pyridin-2-yl)thiazol-2-ylamino)pyridin-3-yl)piperidine-3-carboxylic acid]
< 200 | CN(C)C(=O)C1CCCN(c2ccc(Nc3nc(-c4ccccn4)cs3)nc2)C1 (centres unmarked) [Example 158, N,N-dimethyl-1-(6-(4-(pyridin-2-yl)thiazol-2-ylamino)pyridin-3-yl)piperidine-3-carboxamide]
200 to 500 | CNC(=O)C1CCCN(c2ccc(Nc3nc(-c4ccccn4)cs3)nc2)C1 (centres unmarked) [Example 159, N-methyl-1-(6-(4-(pyridin-2-yl)thiazol-2-ylamino)pyridin-3-yl)piperidine-3-carboxamide]
< 200 | Cc1sc(Nc2cc(C(F)(F)F)ccn2)nc1-c1ccccn1 [Example 162, 5-methyl-4-(pyridin-2-yl)-N-(4-(trifluoromethyl)pyridin-2-yl) thiazol-2-amine]
< 200 | FC(F)(F)c1ccnc(Nc2nc(-c3ccccn3)c(CN3CCCCC3)s2)c1 [Example 164, 5-(piperidin-1-ylmethyl)-4-(pyridin-2-yl)-N-(4-(trifluoromethyl)pyridin-2-yl)thiazol-2-amine]
< 200 | OCc1sc(Nc2cc(C(F)(F)F)ccn2)nc1-c1ccccn1 [Example 165, (4-(pyridin-2-yl)-2-(4-(trifluoromethyl)pyridin-2-ylamino)thiazol-5-yl)methanol]
200 to 500 | FC(F)(F)c1ccnc(Nc2nc(-c3ccccn3)c(COCC3CC3)s2)c1 [Example 166, 5-((cyclopropyl-methoxy)methyl)-4-(pyridin-2-yl)-N-(4-(trifluoromethyl)pyridin-2-yl) thiazol-2-amine]
< 200 | CCNC(=O)c1ccnc(Nc2nc(-c3ccccn3)cs2)c1 [Example 178, N-ethyl-2-(4-(pyridin-2-yl)thiazol-2-ylamino) isonicotinamide]
< 200 | O=C(NC1CC(F)(F)C1)c1ccnc(Nc2ncc(-c3ccccn3)s2)c1 [Example 179, N-(3,3-difluoro-cyclobutyl)-2-(5-(pyridin-2-yl)thiazol-2-ylamino) isonicotinamide]
